This is an account of results in patent US20250326749A1, “COMPOUNDS, COMPOSITIONS, AND METHODS OF USING THEREOF” (Sionna Therapeutics Inc., priority 2022, published 2025).

The target in this test is T1, ΔF508-CFTR (Homo sapiens, UniProt P13569, DEL508-508).
T1 construct: expressed in transfected cells; host or cells: CFSMEo- (human CF submucosal gland epithelial cells, ΔF508/Q2X), transiently transfected by nucleofection
T1 sequence (P13569 with tags, fused parts or gaps DEL508-508): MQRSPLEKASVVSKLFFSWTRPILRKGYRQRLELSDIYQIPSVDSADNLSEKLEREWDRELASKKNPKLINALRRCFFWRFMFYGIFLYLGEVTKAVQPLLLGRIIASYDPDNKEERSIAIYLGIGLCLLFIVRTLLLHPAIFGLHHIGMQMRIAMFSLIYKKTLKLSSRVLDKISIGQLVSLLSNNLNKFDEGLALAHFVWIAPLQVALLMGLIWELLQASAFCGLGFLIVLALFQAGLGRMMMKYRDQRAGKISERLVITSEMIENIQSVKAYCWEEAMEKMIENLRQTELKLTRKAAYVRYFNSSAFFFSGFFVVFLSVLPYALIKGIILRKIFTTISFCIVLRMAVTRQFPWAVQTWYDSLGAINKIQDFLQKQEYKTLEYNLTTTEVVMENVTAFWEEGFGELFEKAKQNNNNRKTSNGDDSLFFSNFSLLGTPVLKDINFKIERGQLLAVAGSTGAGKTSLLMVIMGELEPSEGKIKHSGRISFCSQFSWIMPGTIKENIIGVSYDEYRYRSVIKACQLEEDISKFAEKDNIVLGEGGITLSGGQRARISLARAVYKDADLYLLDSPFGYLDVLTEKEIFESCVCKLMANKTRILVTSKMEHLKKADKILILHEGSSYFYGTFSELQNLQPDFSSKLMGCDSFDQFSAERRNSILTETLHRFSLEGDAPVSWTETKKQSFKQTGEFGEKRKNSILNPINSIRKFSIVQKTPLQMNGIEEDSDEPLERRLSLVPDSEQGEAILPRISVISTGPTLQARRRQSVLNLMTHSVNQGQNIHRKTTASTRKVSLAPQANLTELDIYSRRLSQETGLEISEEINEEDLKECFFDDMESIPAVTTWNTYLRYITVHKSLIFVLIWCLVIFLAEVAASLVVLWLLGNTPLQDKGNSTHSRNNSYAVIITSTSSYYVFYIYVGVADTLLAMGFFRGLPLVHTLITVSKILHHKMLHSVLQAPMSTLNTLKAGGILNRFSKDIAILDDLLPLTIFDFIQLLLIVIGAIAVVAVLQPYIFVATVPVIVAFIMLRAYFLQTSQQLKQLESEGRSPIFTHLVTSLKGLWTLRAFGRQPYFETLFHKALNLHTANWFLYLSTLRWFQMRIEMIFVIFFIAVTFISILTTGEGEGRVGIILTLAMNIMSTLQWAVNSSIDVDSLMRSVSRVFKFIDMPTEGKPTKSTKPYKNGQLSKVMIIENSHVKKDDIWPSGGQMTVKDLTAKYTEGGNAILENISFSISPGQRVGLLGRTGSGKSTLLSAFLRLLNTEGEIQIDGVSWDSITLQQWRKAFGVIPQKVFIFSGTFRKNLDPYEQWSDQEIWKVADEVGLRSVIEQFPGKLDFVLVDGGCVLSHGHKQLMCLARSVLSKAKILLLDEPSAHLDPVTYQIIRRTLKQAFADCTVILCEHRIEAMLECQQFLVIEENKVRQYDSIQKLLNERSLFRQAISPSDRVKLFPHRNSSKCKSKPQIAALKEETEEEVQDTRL
Nature of the test: ΔF508-CFTR-HRP trafficking assay (cell surface expression of ΔF508-CFTR). Type of test: cell-based. The conditions noted are these: CFSMEo- cells transiently transfected with ΔF508-CFTR-HRP; test agent 3 μM, 48 h; HRP chemiluminescence. The method in brief:
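Surface-expressed ΔF508-CFTR measured via extracellular HRP tag: cell-impermeable chemiluminescent substrate, 5 min, signal normalized to 0.3% DMSO vehicle.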
`C[C@H](Nc1cc(-n2nc(C(F)(F)F)c3c2[C@H](OC24CC(C(=O)O)(C2)C4)CCC3)ccc1F)c1cc2c(cc1F)OC(F)(F)O2` (single isomer, unassigned) [96 (P2)]: the “RLUs: ΔF508-CFTR-HRP trafficking data normalized to the vehicle treated control (0.3% DMSO)” value is “C (RLU 0.0 μM-3.5 μM)”.

Regarding `C[C@H](Oc1cc(-n2nc(C(F)(F)F)c3c2[C@@H](OC24CC(CC(=O)O)(C2)C4)CCC3)ccc1F)c1ccc2c(c1)OC(F)(F)O2` (single isomer, unassigned) [78 (P1)], the “RLUs: ΔF508-CFTR-HRP trafficking data normalized to the vehicle treated control (0.3% DMSO)” value is “C (RLU 0.0 μM-3.5 μM)”.

As to `C[C@H](Nc1cccc(-n2nc(C(F)(F)F)c3c2[C@@H](OC24CC(C(=O)O)(C2)C4)CCC3)n1)c1ccc2c(c1)OC(F)(F)O2` (single isomer, unassigned) [100 (P1)], the “RLUs: ΔF508-CFTR-HRP trafficking data normalized to the vehicle treated control (0.3% DMSO)” value was “A (RLU 5.0 μM-10 μM)”.

Turning to `C[C@H](Nc1cc(-n2nc(C(F)(F)F)c3c2[C@H](OC24CC(c5nc(=O)o[nH]5)(C2)C4)CCC3)ccc1F)c1ccc2c(c1)OC(F)(F)O2` (single isomer, unassigned) [102 (P2)], the “RLUs: ΔF508-CFTR-HRP trafficking data normalized to the vehicle treated control (0.3% DMSO)” value was “B (RLU 3.5 μM-5.0 μM)”.

On to `Cc1cc(OC2CCCc3c(C(F)(F)F)nn(-c4cccc(O[C@@H](C)c5cc6c(cc5F)OC(F)(F)O6)c4)c32)ccc1C(=O)O` (some centres unmarked) [Example 35], for which the “RLUs: ΔF508-CFTR-HRP trafficking data normalized to the vehicle treated control (0.3% DMSO)” value is given as “B (RLU 3.5 μM-5.0 μM)”.

`C[C@H](Oc1cc(-n2nc(C(F)(F)F)c3c2[C@@H](OC24CC(C(=O)O)(C2)C4)CCC3)ccn1)c1ccc2c(c1)OC(F)(F)O2` [Example 51]: the “RLUs: ΔF508-CFTR-HRP trafficking data normalized to the vehicle treated control (0.3% DMSO)” value is listed as “A (RLU 5.0 μM-10 μM)”.

Take `C[C@H](Nc1ccc(F)c(-n2nc(C(F)(F)F)c3c2[C@H](OC24CC(C(=O)O)(C2)C4)CCC3)c1)c1cc2c(cc1F)OC(F)(F)O2` (single isomer, unassigned) [98 (P2)]: the “RLUs: ΔF508-CFTR-HRP trafficking data normalized to the vehicle treated control (0.3% DMSO)” value was “C (RLU 0.0 μM-3.5 μM)”.

`C[C@H](Oc1cncc(-n2nc(C(F)(F)F)c3c2[C@@H](CN2CCC(C(=O)O)CC2)CCC3)c1)c1ccc2c(c1)OC(F)(F)O2` (single isomer, unassigned) [124 (P1)]: the “RLUs: ΔF508-CFTR-HRP trafficking data normalized to the vehicle treated control (0.3% DMSO)” value was “B (RLU 3.5 μM-5.0 μM)”.

Regarding `C[C@H](Oc1cncc(-n2nc(C(F)(F)F)c3c2[C@H](C(=O)N2CCC(C(=O)O)CC2)CCC3)c1)c1ccc2c(c1)OC(F)(F)O2` (single isomer, unassigned) [122 (P2)], the “RLUs: ΔF508-CFTR-HRP trafficking data normalized to the vehicle treated control (0.3% DMSO)” value was “B (RLU 3.5 μM-5.0 μM)”.

As to `C[C@@H](Oc1cc(-n2nc(C(F)(F)F)c3c2N(Cc2ccc(C(=O)O)cc2)CCC3)cnn1)c1ccc2c(c1)OC(F)(F)O2` (single isomer, unassigned) [Example 3], the “RLUs: ΔF508-CFTR-HRP trafficking data normalized to the vehicle treated control (0.3% DMSO)” value is listed as “C (RLU 0.0 μM-3.5 μM)”.

Consider `C[C@H](Nc1cc(-n2nc(C(F)(F)F)c3c2[C@H](OC24CC(c5nc(=O)o[nH]5)(C2)C4)CCC3)ccc1F)c1cc2c(cc1F)OC(F)(F)O2` (single isomer, unassigned) [103 (P2)], for which the “RLUs: ΔF508-CFTR-HRP trafficking data normalized to the vehicle treated control (0.3% DMSO)” value is “C (RLU 0.0 μM-3.5 μM)”.

On to `C[C@H](Oc1cccc(-n2nc(C(F)(F)F)c3c2C(S(=O)(=O)c2ccc(C(=O)O)cc2)CCC3)c1)c1ccc2c(c1)OC(F)(F)O2` (stereo partly drawn) [Example 71, 4-[[1-[3-[(1S)-1-(2,2-difluoro-1,3-benzodioxol-5-yl)ethoxy]phenyl]-3-(trifluoromethyl)-4,5,6,7-tetrahydroindazol-7-yl]sulfonyl]benzoic acid], for which the “RLUs: ΔF508-CFTR-HRP trafficking data normalized to the vehicle treated control (0.3% DMSO)” value is “C (RLU 0.0 μM-3.5 μM)”.

With `C[C@H](Oc1cc(-n2nc(C(F)(F)F)c3c2C(O[C@H]2CC[C@H](C(=O)O)CC2)CCC3)ccn1)c1cc2c(cn1)OC(F)(F)O2` (single isomer, unassigned) [Example 48], the “RLUs: ΔF508-CFTR-HRP trafficking data normalized to the vehicle treated control (0.3% DMSO)” value is given as “C (RLU 0.0 μM-3.5 μM)”.

As to `CC(c1ccc2c(c1)OC(F)(F)O2)[S+]([O-])c1cccc(-n2nc(C(F)(F)F)c3c2C(Oc2ccc(C(=O)O)cc2)CCC3)c1` (centres unmarked) [Example 117, 4-[[1-[3-[1-(2,2-difluoro-1,3-benzodioxol-5-yl)ethylsulfinyl]phenyl]-3-(trifluoromethyl)-4,5,6,7-tetrahydroindazol-7-yl]oxy]benzoic acid], the “RLUs: ΔF508-CFTR-HRP trafficking data normalized to the vehicle treated control (0.3% DMSO)” value is given as “C (RLU 0.0 μM-3.5 μM)”.

Regarding `C[C@H](Oc1cc(-n2nc(C(F)(F)F)c3c2C(O[C@H]2CC[C@H](C(=O)O)CC2)CCC3)ccn1)c1ccc2c(c1)OC(F)(F)O2` (single isomer, unassigned) [Example 44], the “RLUs: ΔF508-CFTR-HRP trafficking data normalized to the vehicle treated control (0.3% DMSO)” value is given as “A (RLU 5.0 μM-10 μM)”.

In the case of `C[C@H](Oc1cc(-n2nc(C(F)(F)F)c3c2C(O[C@H]2CC[C@H](C(=O)O)CC2)CCC3)cnc1F)c1ccc2c(c1)OC(F)(F)O2` (stereo in doubt) [79 (P2), 4-[[(7R)-1-[5-[(1S)-1-(2,2-difluoro-1,3-benzodioxol-5-yl)ethoxy]-6-fluoro-3-pyridyl]-3-(trifluoromethyl)-4,5,6,7-tetrahydroindazol-7-yl]oxy]cyclohexanecarboxylic acid], the “RLUs: ΔF508-CFTR-HRP trafficking data normalized to the vehicle treated control (0.3% DMSO)” value is given as “A (RLU 5.0 μM-10 μM)”.

As to `CC(C)n1nc(-c2ccnc(N[C@@H](C)c3ccc4c(c3)OC(F)(F)O4)c2)c2c1CCC[C@@H]2Oc1ccc(C(=O)O)cc1` (single isomer, unassigned) [Example 128], the “RLUs: ΔF508-CFTR-HRP trafficking data normalized to the vehicle treated control (0.3% DMSO)” value was “B (RLU 3.5 μM-5.0 μM)”.

As to `C[C@H](Oc1cc(-n2nc(C(F)(F)F)c3c2[C@H](OC24CCC(C(=O)O)(CC2)CC4)CCC3)cc(F)n1)c1ccc2c(c1)OC(F)(F)O2` (single isomer, unassigned) [81 (P1)], the “RLUs: ΔF508-CFTR-HRP trafficking data normalized to the vehicle treated control (0.3% DMSO)” value is on record as “A (RLU 5.0 μM-10 μM)”.

On to `C[C@H](Oc1cc(-n2nc(C(F)(F)F)c3c2[C@H](O[C@H]2CC[C@H](C(=O)O)CC2)CCC3)cnn1)c1ccc2c(c1)OC(F)(F)O2` (single isomer, unassigned) [Example 56], for which the “RLUs: ΔF508-CFTR-HRP trafficking data normalized to the vehicle treated control (0.3% DMSO)” value is recorded as “B (RLU 3.5 μM-5.0 μM)”.

For the compound `C[C@H](Oc1cc(-n2nc(C(F)(F)F)c3c2[C@@H](OC24CCC(C(=O)O)(CC2)CC4)CCC3)ccn1)c1ccc2c(c1)OC(F)(F)O2` (single isomer, unassigned) [Example 64], the “RLUs: ΔF508-CFTR-HRP trafficking data normalized to the vehicle treated control (0.3% DMSO)” value is listed as “A (RLU 5.0 μM-10 μM)”.

For `CC(Sc1cccc(-n2nc(C(F)(F)F)c3c2C(Oc2ccc(C(=O)O)cc2)CCC3)c1)c1ccc2c(c1)OC(F)(F)O2` (centres unmarked) [Example 116, 4-[[1-[3-[1-(2,2-difluoro-1,3-benzodioxol-5-yl)ethylsulfanyl]phenyl]-3-(trifluoromethyl)-4,5,6,7-tetrahydroindazol-7-yl]oxy]benzoic acid], the “RLUs: ΔF508-CFTR-HRP trafficking data normalized to the vehicle treated control (0.3% DMSO)” value is recorded as “B (RLU 3.5 μM-5.0 μM)”.

With `C[C@H](Oc1cccc(-n2nc(C(F)(F)F)c3c2N(C(=O)N2CCC(C(=O)O)CC2)CCC3)c1)c1ccc2c(c1)OC(F)(F)O2` [Example 18, 1-[1-[3-[(1S)-1-(2,2-difluoro-1,3-benzodioxol-5-yl)ethoxy]phenyl]-3-(trifluoromethyl)-5,6-dihydro-4H-pyrazolo[3,4-b]pyridine-7-carbonyl]piperidine-4-carboxylic acid], the “RLUs: ΔF508-CFTR-HRP trafficking data normalized to the vehicle treated control (0.3% DMSO)” value is listed as “A (RLU 5.0 μM-10 μM)”.

For `C[C@H](Oc1cc(-n2nc(C(F)(F)F)c3c2[C@@H](OC[C@H]2CC[C@H](C(=O)O)CC2)CCC3)cnc1F)c1ccc2c(c1)OC(F)(F)O2` (single isomer, unassigned) [82 (P1)], the “RLUs: ΔF508-CFTR-HRP trafficking data normalized to the vehicle treated control (0.3% DMSO)” value was “B (RLU 3.5 μM-5.0 μM)”.

As for `C[C@H](Nc1nc(-n2nc(C(F)(F)F)c3c2[C@@H](Oc2ccc(C(=O)O)cc2)CCC3)ccc1F)c1ccc2c(c1)OC(F)(F)O2` (single isomer, unassigned) [Example 92], the “RLUs: ΔF508-CFTR-HRP trafficking data normalized to the vehicle treated control (0.3% DMSO)” value is “B (RLU 3.5 μM-5.0 μM)”.

In the case of `O=C(O)c1ccc(OC2CCCc3c(C(F)(F)F)nn(-c4cccc(OCc5ccc6c(c5)OC(F)(F)O6)c4)c32)cc1` (centres unmarked) [Example 20, 4-[[1-[3-[(2,2-difluoro-1,3-benzodioxol-5-yl)methoxy]phenyl]-3-(trifluoromethyl)-4,5,6,7-tetrahydroindazol-7-yl]oxy]benzoic acid], the “RLUs: ΔF508-CFTR-HRP trafficking data normalized to the vehicle treated control (0.3% DMSO)” value is listed as “B (RLU 3.5 μM-5.0 μM)”.

For `C[C@H](Oc1cc(-n2nc(C(F)(F)F)c3c2[C@H](Oc2ccc(C(=O)O)cc2)CN(C)C3)ccn1)c1ccc2c(c1)OC(F)(F)O2` (single isomer, unassigned) [115 (P2)], the “RLUs: ΔF508-CFTR-HRP trafficking data normalized to the vehicle treated control (0.3% DMSO)” value is listed as “C (RLU 0.0 μM-3.5 μM)”.

Consider `C[C@H](Oc1cc(-n2nc(C(F)(F)F)c3c2C(O[C@H]2CC[C@H](C(=O)O)CC2)CCC3)cc(F)n1)c1ccc2c(c1)OC(F)(F)O2` (stereo in doubt) [80 (P2), 4-[[(7R)-1-[2-[(1S)-1-(2,2-difluoro-1,3-benzodioxol-5-yl)ethoxy]-6-fluoro-4-pyridyl]-3-(trifluoromethyl)-4,5,6,7-tetrahydroindazol-7-yl]oxy]cyclohexanecarboxylic acid], for which the “RLUs: ΔF508-CFTR-HRP trafficking data normalized to the vehicle treated control (0.3% DMSO)” value was “B (RLU 3.5 μM-5.0 μM)”.

As for `C[C@H](Oc1cncc(-n2nc(C(F)(F)F)c3c2N(CC24CCC(C(=O)O)(CC2)CC4)CCC3)c1)c1ccc2c(c1)OC(F)(F)O2` (single isomer, unassigned) [Example 14], the “RLUs: ΔF508-CFTR-HRP trafficking data normalized to the vehicle treated control (0.3% DMSO)” value was “A (RLU 5.0 μM-10 μM)”.

Consider `C[C@@H](Oc1cccc(-n2nc(C(F)(F)F)c3c2C(OC24CC(C(=O)O)(C2)C4)CCC3)c1)c1ccc2c(c1)OC(F)(F)O2` (stereo partly drawn) [Example 41, 3-[[1-[3-[(1R)-1-(2,2-difluoro-1,3-benzodioxol-5-yl)ethoxy]phenyl]-3-(trifluoromethyl)-4,5,6,7-tetrahydroindazol-7-yl]oxy]bicyclo[1.1.1]pentane-1-carboxylic acid], for which the “RLUs: ΔF508-CFTR-HRP trafficking data normalized to the vehicle treated control (0.3% DMSO)” value is “A (RLU 5.0 μM-10 μM)”.
